This note sets out measurements from PubChem BioAssay (NCI).

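Five concentrations, 48 hours, 96-well plates. The concentration for 50% growth inhibition is given as GI50. TGI: total growth inhibition.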

Test systems include SF-295 CNS; ACHN renal; CCRF-CEM leukemia; SNB-19 CNS; SN12C renal; NCI-H460 lung; MDA-N; UO-31 renal; HCT-15 colon; PC-3 prostate; A498 renal.
Holding throughout (experiment): NCI-60 cell line screen, 48 h

On to `COc1cc(OC)cc(Oc2nc3ccccc3nc2C(F)(F)F)c1`, for which the TGI in the assay on SF-295 CNS, in the assay with ACHN renal, in the assay on CCRF-CEM leukemia, in the assay with SNB-19 CNS, in the assay with SN12C renal and in the assay with NCI-H460 lung was more than 100 µM throughout. The TGI with MDA-N was more than 100 µM; with UO-31 renal, more than 100 µM; in the assay with HCT-15 colon, more than 100 µM; with PC-3 prostate it was more than 100 µM; with A498 renal it was 73.9 µM.
With `CO/N=C(\C(=O)OC(=NC1CCCCC1)NC1CCCCC1)c1csc(NC(c2ccccc2)(c2ccccc2)c2ccccc2)n1`, the TGI with SF-295 CNS, in the assay with ACHN renal, in the assay with CCRF-CEM leukemia, with SNB-19 CNS, in the assay with SN12C renal and in the assay with NCI-H460 lung was more than 10 µM throughout. Also, the TGI in the assay on MDA-N, in the assay on UO-31 renal, in the assay on HCT-15 colon, in the assay with PC-3 prostate and with A498 renal was more than 10 µM each time.
Consider `CC1(C)[C@@H](Cn2ccc(=O)[nH]c2=O)CC[C@@]1(C)CO`, for which the TGI in the assay with SF-295 CNS, in the assay on ACHN renal, in the assay with CCRF-CEM leukemia, in the assay with SNB-19 CNS, with SN12C renal and with MDA-N was more than 100 µM each time. Further, the TGI with UO-31 renal, with HCT-15 colon, with PC-3 prostate and in the assay on A498 renal was more than 100 µM each time.
`[N-]=[N+]=Nc1c([N+](=O)[O-])c(=O)n(-c2ccccc2)c2ccccc12`: the TGI is 95.5 µM with SF-295 CNS; 85.5 µM in the assay on ACHN renal; 92.4 µM in the assay on CCRF-CEM leukemia; more than 100 µM in the assay with SNB-19 CNS; 62.9 µM with SN12C renal; more than 100 µM in the assay with NCI-H460 lung. For the same compound, the TGI was 83.2 µM in the assay on MDA-N; 32.2 µM in the assay on UO-31 renal; 64.6 µM in the assay on HCT-15 colon; 83.9 µM in the assay with PC-3 prostate; more than 100 µM in the assay on A498 renal.
Turning to `Brc1ccc2[nH]cc(-c3csc(-c4c[nH]c5ccccc45)n3)c2c1`, the TGI turned out to be 6.32 µM with SF-295 CNS; 13.2 µM in the assay on ACHN renal; 5.89 µM in the assay with CCRF-CEM leukemia; 9.6 µM in the assay with SNB-19 CNS; 14.2 µM with SN12C renal; 12.6 µM in the assay on NCI-H460 lung. In addition, the TGI stood at 7.65 µM in the assay on MDA-N; 11.3 µM in the assay with UO-31 renal; 6.54 µM in the assay on HCT-15 colon; 10.2 µM with PC-3 prostate; 13.8 µM in the assay with A498 renal.
In the case of `CCn1c(-c2ccccc2)cs/c1=N\C(P(=O)(O)O)P(=O)(O)O`, the TGI with SF-295 CNS, in the assay with ACHN renal, with CCRF-CEM leukemia, with SNB-19 CNS, in the assay on NCI-H460 lung and in the assay on MDA-N was more than 100 µM each time. Besides, the TGI in the assay with UO-31 renal, in the assay on HCT-15 colon, in the assay on PC-3 prostate and in the assay with A498 renal was more than 100 µM each time.
Turning to `O=[N+]([O-])c1ccc2[nH]c(=S)[nH]c(=S)c2c1`, the TGI in the assay with SF-295 CNS, in the assay with ACHN renal, in the assay on CCRF-CEM leukemia, in the assay on SNB-19 CNS, in the assay on SN12C renal and in the assay with NCI-H460 lung was more than 100 µM in each case. Also, the TGI with MDA-N, with UO-31 renal, with HCT-15 colon, with PC-3 prostate and in the assay on A498 renal was more than 100 µM each time.
On to `COc1cc(C2c3cc4c(cc3OC(N3CCCCC3)C2C)OCO4)cc(OC)c1O` (stereo not drawn), for which the TGI was 13.4 µM with SF-295 CNS; 23.1 µM with ACHN renal; 25.1 µM with CCRF-CEM leukemia; 53.7 µM with SNB-19 CNS; 27.5 µM in the assay on SN12C renal; 23.3 µM in the assay on NCI-H460 lung. The TGI with MDA-N was 5.6 µM; in the assay with UO-31 renal, 34.8 µM; in the assay on HCT-15 colon it was more than 57.1 µM; in the assay on PC-3 prostate, 22.2 µM; in the assay on A498 renal, 27.1 µM.
As to `Cc1ccnc2[nH]c(-c3ccc4ccccc4c3)cc(=O)c12`, the GI50 with SF-295 CNS was 1.49 µM; in the assay on NCI-H460 lung it was 1.05 µM; in the assay with MDA-N it was 0.206 µM; in the assay on PC-3 prostate, 1.38 µM. Besides, the TGI in the assay on SF-295 CNS was determined as 10.9 µM; in the assay with ACHN renal, 13.6 µM; with CCRF-CEM leukemia it was 8.43 µM; with SNB-19 CNS it was 31 µM; with SN12C renal it was 18.7 µM; in the assay on NCI-H460 lung it was 7.34 µM. In addition, the TGI came to 0.448 µM in the assay on MDA-N; 16 µM with UO-31 renal; 10.8 µM in the assay on HCT-15 colon; 6.06 µM in the assay with PC-3 prostate; 4.87 µM with A498 renal.
In the case of `Cc1ccc(-n2cnc(C(=N)C#N)c2N)cc1`, the TGI in the assay on SF-295 CNS, with ACHN renal, in the assay on CCRF-CEM leukemia, in the assay with SNB-19 CNS, in the assay with SN12C renal and in the assay with NCI-H460 lung was more than 100 µM in each case. Besides, the TGI in the assay on MDA-N, in the assay with UO-31 renal, with HCT-15 colon, in the assay with PC-3 prostate and in the assay with A498 renal was more than 100 µM throughout.
`CCOC1(OCC)C2C=CC1C(COS(=O)(=O)c1ccc(C)cc1)C2COS(=O)(=O)c1ccc(C)cc1` (stereo not drawn): the TGI in the assay with SF-295 CNS, with ACHN renal, with CCRF-CEM leukemia, with SNB-19 CNS, in the assay on SN12C renal and with NCI-H460 lung was more than 100 µM throughout. Moreover, the TGI was more than 100 µM with MDA-N; more than 100 µM in the assay with UO-31 renal; more than 100 µM in the assay with HCT-15 colon; 74.6 µM with PC-3 prostate; 54.9 µM in the assay with A498 renal.
Take `O=C1Sc2cc3ccccc3cc2C(=O)Sc2ccc(Br)cc21`: the TGI in the assay on SF-295 CNS is 29.1 µM; with ACHN renal it was 6.02 µM; in the assay with CCRF-CEM leukemia, more than 19.7 µM; in the assay on SNB-19 CNS it was 32.2 µM; with SN12C renal it was 16.8 µM; in the assay on NCI-H460 lung it was 24.2 µM. In addition, the TGI with MDA-N turned out to be 18 µM; in the assay on HCT-15 colon, 7.71 µM; in the assay with PC-3 prostate, 12.9 µM; with A498 renal it was 33.4 µM.
